Values quoted from earlier work as cited in PMC4221044, “Antimicrobial GL13K Peptide Coatings Killed and Ruptured the Wall of Streptococcus gordonii and Prevented Formation and Growth of Biofilms” (PLoS ONE, 2014).

Key:
[1] = system: Pseudonomas aeruginosa biofilms; settings: 100 µg/ml GL13K
From the text: (§1) Functionalization of titanium surfaces with coatings made of antimicrobial agents has recently been explored to inhibit peri-implant infections. The coatings can contain nanoparticles of pure elements, [5]; sanitizing agents and disinfectants; and antibiotics as well as antimicrobial peptides. Gentamicin [7]–[9] and Vancomycin [10]–[13] have been coated on Ti surfaces for protecting from infection dental and orthopedic implants.

Streptococcus gordonii = settings: 100 µg/ml GL13K
From the text: as §1

[2] = system: planktonic Pseudonomas aeruginosa; settings: peptide in solution
From the text: as §1

GKIIKLKASLKLL-NH2 [GL13K, antimicrobial peptide …-NH2 derived from the human salivary protein BPIFA2]
reduction of biofilms [1]: three orders of magnitude
bacteria killed (Streptococcus gordonii): 100%
MIC [2]: 8 µg/mL
